Results taken from publication doi:10.1101/839787v1 (bioRxiv, 2019).
Where a SMILES comes first, the peptide text is derived from it. Bridges are numbered along the chain shown (N, C = ends). Where no end group is shown, it is not given here.

Key:
Raw 264 macrophages = test: Inflammatory response in vitro: LPS-activated macrophages; type: cell-based, murine; settings: 100 nmol/L peptide
[1] = In vitro stability of peptides in human plasma; type: in vitro ADME; settings: for main metabolite / main degradation product: Mass Spectrometry
[2] = tested on: DSS-induced acute colitis; test: DSS-induced acute ulcerative colitis; type: in vivo, C57Bl/6 mice; settings: 5% DSS, i.p. days 1, 2, 3, day 8
[3] = tested on: DSS-induced chronic colitis; test: DSS-induced chronic; type: in vivo, C57Bl/6 mice
[4] = tested on: TNBS-induced acute colitis; test: TNBS-induced acute colitis, protective regime; type: in vivo, BALB/c mice; settings: TNBS 3 mg/mouse, 0.4 mg/kg systemic, n=8
[5] = tested on: TNBS-induced acute colitis; test: TNBS-induced acute colitis, curative regime; type: in vivo, BALB/c mice; settings: TNBS 3 mg/mouse
[6] = tested on: TNBS-induced chronic colitis; test: TNBS-induced chronic colitis; type: in vivo, Balb/c mice; settings: tolerance regime, treatment during first week only; n=8
Aqueous solubility = type: physicochemical; settings: aqueous buffer solution, observation in words

Compound: Cc1cc(C)c(C[C@@H]2NC(=O)[C@H](Cc3ccccc3)NC(=O)[C@H](CC(N)=O)NC(=O)[C@H](CCCCN)NC(=O)[C@@H](NC(=O)[C@@H]3CCCN3)CSSC[C@@H](C(=O)N[C@@H](CCCCN)C(=O)O)NC(=O)[C@H](CO)NC(=O)[C@H]([C@@H](C)O)NC(=O)[C@H](Cc3ccccc3)NC(=O)[C@H]([C@@H](C)O)NC(=O)[C@H](CCCCN)NC(=O)[C@@H](Cc3c[nH]c4ccccc34)NC2=O)c(C)c1 [Analog 2]
- effect on production of TNFα, IL-6 and NO by activated macrophages (Raw 264 macrophages): no effect

Compound: CCCCCCCC(=O)N1CCC[C@H]1C(=O)N[C@H]1CSSC[C@@H](C(=O)N[C@@H](CCCCN)C(=O)O)NC(=O)[C@H](CO)NC(=O)[C@H]([C@@H](C)O)NC(=O)[C@H](Cc2ccccc2)NC(=O)[C@H]([C@@H](C)O)NC(=O)[C@H](CCCCN)NC(=O)[C@@H](Cc2c[nH]c3ccccc23)NC(=O)[C@H](Cc2c(C)cc(C)cc2C)NC(=O)[C@H](Cc2ccccc2)NC(=O)[C@H](CC(N)=O)NC(=O)[C@H](CCCCN)NC1=O [Analog 3]
- effect on production of TNFα, IL-6 and NO by activated macrophages (Raw 264 macrophages): no effect

Compound: Cc1cc(C)c(C[C@@H]2NC(=O)[C@H](CC(N)=O)NC(=O)[C@H](CCCCN)NC(=O)[C@@H](NC(=O)[C@@H]3CCCN3)CSSC[C@@H](C(=O)N[C@@H](CCCCN)C(=O)O)NC(=O)[C@H](CO)NC(=O)[C@H]([C@@H](C)O)NC(=O)[C@H](Cc3ccccc3)NC(=O)[C@H]([C@@H](C)O)NC(=O)[C@H](CCCCN)NC(=O)[C@@H](Cc3c[nH]c4ccccc34)NC(=O)[C@H](Cc3ccccc3)NC2=O)c(C)c1 [Analog 4, [L-Msa5_D-Trp7_L-Thr11]-CST14]
- effect on production of TNFα, IL-6 and NO by activated macrophages (Raw 264 macrophages): no effect

Compound: CCCCCCCC(=O)N1CCC[C@H]1C(=O)N[C@H]1CSSC[C@@H](C(=O)N[C@@H](CCCCN)C(=O)O)NC(=O)[C@H](CO)NC(=O)[C@H]([C@@H](C)O)NC(=O)[C@H](Cc2ccccc2)NC(=O)[C@H]([C@@H](C)O)NC(=O)[C@H](CCCCN)NC(=O)[C@@H](Cc2c[nH]c3ccccc23)NC(=O)[C@H](Cc2ccccc2)NC(=O)[C@H](Cc2c(C)cc(C)cc2C)NC(=O)[C@H](CC(N)=O)NC(=O)[C@H](CCCCN)NC1=O [Analog 5]
- main metabolite / main degradation product [1]: peptide 6
- increase of stability in serum with respect to the native neuropeptide ([1]; from half-lives in serum): ten-fold
- effect on production of TNFα, IL-6 and NO by activated macrophages (Raw 264 macrophages): strikingly reduced
- Colon length ([2]; mean of n=8): 8.65 cm
- Colon weight ([2]; mean of n=8): 625 mg
- Macroscopic score for colon (0-8) ([2]; mean of n=8): 1
- Colon weight ([2]; mouse 1): 624 mg
- Macroscopic score for colon (0-8) ([2]; mouse 1): 1
- Colon length ([2]; mouse 2): 8.7 cm
- Colon weight ([2]; mouse 2): 631 mg
- Macroscopic score for colon (0-8) ([2]; mouse 2): 1
- Colon length ([2]; mouse 3): 9.3 cm
- Colon weight ([2]; mouse 3): 581 mg
- Macroscopic score for colon (0-8) ([2]; mouse 3): 0
- Colon length ([2]; mouse 4): 7.8 cm
- Colon weight ([2]; mouse 4): 662 mg
- Macroscopic score for colon (0-8) ([2]; mouse 4): 2
- Colon length ([2]; mouse 5): 9.2 cm
- Colon weight ([2]; mouse 5): 611 mg
- Macroscopic score for colon (0-8) ([2]; mouse 5): 0
- Colon length ([2]; mouse 6): 8.4 cm
- Colon weight ([2]; mouse 6): 597 mg
- Macroscopic score for colon (0-8) ([2]; mouse 6): 1
- Colon length ([2]; mouse 7): 8.6 cm
- Colon weight ([2]; mouse 7): 624 mg
- Macroscopic score for colon (0-8) ([2]; mouse 7): 1
- Colon length ([2]; mouse 8): 8.1 cm
- Colon weight ([2]; mouse 8): 677 mg
- Macroscopic score for colon (0-8) ([2]; mouse 8): 2
- Lengths (cm) for colons at day 25 after initiation of DSS treatment ([3]; Group 3: DSS+A5 one cycle, mean of 8 mice): 8.24 cm
- Lengths (cm) for colons at day 25 after initiation of DSS treatment ([3]; Group 3: DSS+A5 one cycle, mouse 1): 8.15 cm
- Lengths (cm) for colons at day 25 after initiation of DSS treatment ([3]; Group 3: DSS+A5 one cycle, mouse 2): 8.78 cm
- Lengths (cm) for colons at day 25 after initiation of DSS treatment ([3]; Group 3: DSS+A5 one cycle, mouse 3): 7.86 cm
- Lengths (cm) for colons at day 25 after initiation of DSS treatment ([3]; Group 3: DSS+A5 one cycle, mouse 5): 8.77 cm
- Lengths (cm) for colons at day 25 after initiation of DSS treatment ([3]; Group 3: DSS+A5 one cycle, mouse 6): 7.24 cm
- Lengths (cm) for colons at day 25 after initiation of DSS treatment ([3]; Group 3: DSS+A5 one cycle, mouse 7): 7.02 cm
- Lengths (cm) for colons at day 25 after initiation of DSS treatment ([3]; Group 3: DSS+A5 one cycle, mouse 8): 9.14 cm
- Lengths (cm) for colons at day 25 after initiation of DSS treatment ([3]; Group 4: DSS+A5 two cycles, mean of 8 mice): 9.64 cm
- Lengths (cm) for colons at day 25 after initiation of DSS treatment ([3]; Group 4: DSS+A5 two cycles, mouse 3): 9.85 cm
- Lengths (cm) for colons at day 25 after initiation of DSS treatment ([3]; Group 4: DSS+A5 two cycles, mouse 5): 9.34 cm
- Lengths (cm) for colons at day 25 after initiation of DSS treatment ([3]; Group 4: DSS+A5 two cycles, mouse 7): 9.61 cm
- Lengths (cm) for colons at day 25 after initiation of DSS treatment ([3]; Group 4: DSS+A5 two cycles, mouse 8): 9.15 cm
- protection from body weight loss, bloody diarrhea and mortality [4]: significantly protected
- effect on clinical signs and survival ([5]; curative regime days 3, 4, 5, i.p. or s.c. 0.4 mg/kg, n=8): significantly effective
- effectiveness of oral administration versus i.p. and s.c. ([5]; curative regime, oral): less effective
- protection from subsequent expositions to TNBS, tolerance effect [6]: significantly protected
- aqueous solubility (Aqueous solubility): soluble

Compound: C[C@@H](O)[C@@H]1NC(=O)[C@H](CCCCN)NC(=O)[C@H](Cc2c[nH]c3ccccc23)NC(=O)[C@H](Cc2ccccc2)NC(=O)[C@H](Cc2ccccc2)NC(=O)[C@H](CC(N)=O)NC(=O)[C@H](CCCCN)NC(=O)[C@@H](NC(=O)[C@@H]2CCCN2)CSSC[C@@H](C(=O)N[C@@H](CCCCN)C(=O)O)NC(=O)[C@H](CO)NC(=O)[C@H](CO)NC(=O)[C@H](Cc2ccccc2)NC1=O [Cortistatin, Cortistatin-14, reference compound] (H-PCKNFFWKTFSSCK-OH; disulfide 2-13)
- main metabolite / main degradation product [1]: deletion of L-Lys14

Compound: Nc1ccc(O)c(C(=O)O)c1 [mesalazine, 5-aminosalycilic acid, reference compound]
- protection from subsequent expositions to TNBS, tolerance effect [6]: fully or partially failed

Compound: Cortistatin-29 (QEGAPPQQSARRDRMPCRNFFWKTFSSCK; disulfide 17-28 (inferred); ends not checked; UniProt O00230 77-105, looked up)
- Colon length ([2]; mean of n=8): 9.08 cm
- Colon weight ([2]; mean of n=8): 621 mg
- Macroscopic score for colon (0-8) ([2]; mean of n=8): 0.87
- Colon length ([2]; mouse 1): 8.9 cm
- Colon weight ([2]; mouse 1): 622 mg
- Macroscopic score for colon (0-8) ([2]; mouse 1): 1
- Colon length ([2]; mouse 2): 9.1 cm
- Colon weight ([2]; mouse 2): 634 mg
- Macroscopic score for colon (0-8) ([2]; mouse 2): 1
- Colon length ([2]; mouse 3): 9.5 cm
- Colon weight ([2]; mouse 3): 578 mg
- Macroscopic score for colon (0-8) ([2]; mouse 3): 0
- Colon length ([2]; mouse 4): 8.4 cm
- Colon weight ([2]; mouse 4): 655 mg
- Macroscopic score for colon (0-8) ([2]; mouse 4): 2
- Colon length ([2]; mouse 5): 9.2 cm
- Colon weight ([2]; mouse 5): 607 mg
- Macroscopic score for colon (0-8) ([2]; mouse 5): 1
- Colon length ([2]; mouse 6): 8.9 cm
- Colon weight ([2]; mouse 6): 632 mg
- Macroscopic score for colon (0-8) ([2]; mouse 6): 1
- Colon length ([2]; mouse 7): 9.6 cm
- Colon weight ([2]; mouse 7): 612 mg
- Macroscopic score for colon (0-8) ([2]; mouse 7): 0
- Colon length ([2]; mouse 8): 9.1 cm
- Colon weight ([2]; mouse 8): 635 mg
- Macroscopic score for colon (0-8) ([2]; mouse 8): 1
